The source of these data is the Deep4Chem optical property database.

“And” between values parts separate entries of the source, which are not always exact repeats. Identical values can stand only once.

A short description of one data set: solvent given as SMILES. The note with it: in C1CCCCC1.
For the molecule `CC1=[N+]2C(=C(c3ccc(N4CCOCC4)cc3)c3ccc(C)n3[B-]2(F)F)C=C1`, the emission maximum came to 520 nm.

In turn, `c1ccccc1` yielded an emission maximum of 287.36 nm.

On to `CB1C=Cc2ccc3ccccc3c2N1`, for which the emission maximum stood at 373 nm.

Staying with this data set, now noted: in C1CCOC1.
`CC(C)(C)c1ccc(-c2c(-c3ccc(-n4c5ccccc5c5ccccc54)cc3)cc(-c3ccc(-n4c5ccccc5c5ccccc54)cc3)c(-c3ccc(C(C)(C)C)cc3)c2-c2ccc(C(C)(C)C)cc2)cc1` had an emission maximum of 367 nm.

With `COc1cc(/C=C/c2nc3ccccc3s2)c(OC)cc1/C=C/c1nc(C)nc(/C=C/c2cc(OC)c(/C=C/c3nc4ccccc4s3)cc2OC)n1`, the emission maximum was 490 nm.

For the molecule `CC1CC=C(c2ccc(-c3ccc(C#N)s3)s2)CC1` (configuration not stated), the emission maximum amounted to 443 nm.

As to `CCn1c2sccc2c2c3nsnc3c3c4ccsc4n(CC)c3c21`, the emission maximum was determined as 521 nm.

On to `CC1=[N+]2C(=C(c3ccc(N4CCOCC4)cc3)c3ccc(C)n3[B-]2(F)F)C=C1`, for which the emission maximum is 695 nm and 528 nm.

For the molecule `c1ccc(-c2nc(-c3ccccc3)nc(-n3c4ccccc4c4cc(-n5c6ccccc6c6ccccc65)cc(-n5c6ccccc6c6ccccc65)c43)n2)cc1`, the emission maximum was found to be 482.53 nm.

As for `OCC1O[C@@H](Cc2cc(O)cc(/C=C/c3ccc(O)c(O)c3)c2)[C@H](O)[C@@H](O)[C@@H]1O` (some centres not stated), the emission maximum is recorded as 375 nm.

Turning to `O=CC1=C(c2ccc(-c3cccs3)s2)CCC1`, the emission maximum is 479 nm.

For `Cc1ccc(C2=C3C=CC(Sc4ccccc4)=[N+]3[B-](F)(F)n3c(Sc4ccccc4)ccc32)cc1`, the emission maximum worked out at 599 nm.

The data set is the same for the next values; noted with them: in C1COCCO1.
With `Clc1nc(Nc2ccccc2)nc(Nc2ccc3cc4ccccc4cc3c2)n1`, the emission maximum is reported as 436 nm.

As to `CC1(C)c2ccccc2N(c2ccc3c(c2)c2cc(N4c5ccccc5C(C)(C)c5ccccc54)ccc2c2nc(C#N)c(C#N)nc32)c2ccccc21`, the emission maximum is listed as 753.65 nm.

With `OCC1O[C@@H](Cc2cc(O)cc(/C=C/c3ccc(O)c(O)c3)c2)[C@H](O)[C@@H](O)[C@@H]1O` (some centres not stated), the emission maximum was determined as 370 nm.

The same data set, now with this note: in CC#N.
Molecule `COc1cc(/C=C/c2nc3ccccc3s2)c(OC)cc1/C=C/c1nc(C)nc(/C=C/c2cc(OC)c(/C=C/c3nc4ccccc4s3)cc2OC)n1` displayed an emission maximum of 505 nm.

Molecule `CC1CC=C(c2ccc(-c3ccc(C#N)s3)s2)CC1` (configuration not stated) gave an emission maximum of 448 nm.

On to `CC1=[N+]2C(=C(c3ccc(N4CCOCC4)cc3)c3ccc(C)n3[B-]2(F)F)C=C1`, for which the emission maximum came out at 534 nm.

In the case of `Clc1nc(Nc2ccccc2)nc(Nc2ccc3cc4ccccc4cc3c2)n1`, the emission maximum stood at 432 nm.

In the case of `OCC1O[C@@H](Cc2cc(O)cc(/C=C/c3ccc(O)c(O)c3)c2)[C@H](O)[C@@H](O)[C@@H]1O` (some centres not stated), the emission maximum turned out to be 387 nm.

`O=CC1=C(c2ccc(-c3cccs3)s2)CCC1` showed an emission maximum of 493 nm.

`Cc1cc(O)c(C(=O)/C=C/c2ccccc2Cl)c(=O)o1` registered an emission maximum of 481 nm.

Still in this data set, the particulars now being: in CC(=O)C(C)(C)C.
Molecule `CC1=[N+]2C(=C(c3ccc(N4CCOCC4)cc3)c3ccc(C)n3[B-]2(F)F)C=C1` yielded an emission maximum of 530 nm.

The data set is the same for the next values; noted with them: in CC(C)=O.
The molecule `CC1=[N+]2C(=C(c3ccc(N4CCOCC4)cc3)c3ccc(C)n3[B-]2(F)F)C=C1` registered an emission maximum of 517 nm.

In turn, `OCC1O[C@@H](Cc2cc(O)cc(/C=C/c3ccc(O)c(O)c3)c2)[C@H](O)[C@@H](O)[C@@H]1O` (some centres not stated) had an emission maximum of 376 nm.

The data set is the same for the next values; noted with them: in CCCCCC.
Consider `CC(C)[Si](C#Cc1c2nsnc2c(C#C[Si](C(C)C)(C(C)C)C(C)C)c2nc3c(ccc4cc5ccccc5cc43)nc12)(C(C)C)C(C)C`, for which the emission maximum came to 605 nm.

Molecule `CC(C)[Si](C#Cc1c2ccccc2c(C#C[Si](C(C)C)(C(C)C)C(C)C)c2nc3c(ccc4ccccc43)nc12)(C(C)C)C(C)C` showed an emission maximum of 553 nm.

In the case of `CC(C)[Si](C#Cc1c2nc3ccccc3nc2c(C#C[Si](C(C)C)(C(C)C)C(C)C)c2nc3c(ccc4cc5ccccc5cc43)nc12)(C(C)C)C(C)C`, the emission maximum amounted to 648 nm.

The molecule `CC1CC=C(c2ccc(-c3ccc(C#N)s3)s2)CC1` (configuration not stated) showed an emission maximum of 427 nm.

With `CC1=[N+]2C(=C(c3ccc(N4CCOCC4)cc3)c3ccc(C)n3[B-]2(F)F)C=C1`, the emission maximum is listed as 520 nm.

`CC1(C)c2ccccc2N(c2ccc3c(c2)c2cc(N4c5ccccc5C(C)(C)c5ccccc54)ccc2c2nc(C#N)c(C#N)nc32)c2ccccc21` showed an emission maximum of 572.45 nm.

Molecule `O=CC1=C(c2ccc(-c3cccs3)s2)CCC1` registered an emission maximum of 456 nm.

Staying with this data set, now noted: in CCCCO.
As to `OCC1O[C@@H](Cc2cc(O)cc(/C=C/c3ccc(O)c(O)c3)c2)[C@H](O)[C@@H](O)[C@@H]1O` (some centres not stated), the emission maximum came out at 385 nm.

The same data set, now with this note: in CCCCOCCCC
`Clc1nc(Nc2ccccc2)nc(Nc2ccc3cc4ccccc4cc3c2)n1`: the emission maximum turned out to be 430 nm.

Still in this data set, the particulars now being: in CCCO.
In turn, `OCC1O[C@@H](Cc2cc(O)cc(/C=C/c3ccc(O)c(O)c3)c2)[C@H](O)[C@@H](O)[C@@H]1O` (some centres not stated) returned an emission maximum of 386 nm.

Still in this data set, the particulars now being: in CCO.
`CC1CC=C(c2ccc(-c3ccc(C#N)s3)s2)CC1` (configuration not stated) showed an emission maximum of 443 nm.

In turn, `OCC1O[C@@H](Cc2cc(O)cc(/C=C/c3ccc(O)c(O)c3)c2)[C@H](O)[C@@H](O)[C@@H]1O` (some centres not stated) came in with an emission maximum of 390 nm.

Regarding `Cc1c(C)n2c(COC(=O)c3ccccc3O)c(C)c(=O)n2c1=O`, the emission maximum turned out to be 465 nm.

Regarding `O=CC1=C(c2ccc(-c3cccs3)s2)CCC1`, the emission maximum is given as 514 nm.

Still in this data set, the particulars now being: in CCOC(C)=O.
For `CCn1c2sccc2c2c3nsnc3c3c4ccsc4n(CC)c3c21`, the emission maximum came out at 521 nm.

In the case of `CC1=[N+]2C(=C(c3ccc(N4CCOCC4)cc3)c3ccc(C)n3[B-]2(F)F)C=C1`, the emission maximum came to 520 nm.

`Clc1nc(Nc2ccccc2)nc(Nc2ccc3cc4ccccc4cc3c2)n1`: the emission maximum was 433 nm.
